From BindingDB's records for doi:10.1021/acs.jmedchem.2c01800 (China Pharmaceutical University, 2023)

Tests used:
[1] = molecular target: T1, Signal transducer and activator of transcription 3 (Homo sapiens, UniProt P40763); test: Inhibition of IL-23 induced STAT3 phosphorylation in human KIT225 cells by AlphaLISA assay
[2] = molecular target: T1, Signal transducer and activator of transcription 3; test: Inhibition of IL-23 induced STAT3 phosphorylation in human Jurkat cells incubated for 30 mins by microplate reader analysis
[3] = molecular target: T1, Signal transducer and activator of transcription 3; test: Inhibition of IL-6 induced STAT3 phosphorylation in human TF-1 cells by AlphaLISA assay

T1 sequence (P40763 whole entry): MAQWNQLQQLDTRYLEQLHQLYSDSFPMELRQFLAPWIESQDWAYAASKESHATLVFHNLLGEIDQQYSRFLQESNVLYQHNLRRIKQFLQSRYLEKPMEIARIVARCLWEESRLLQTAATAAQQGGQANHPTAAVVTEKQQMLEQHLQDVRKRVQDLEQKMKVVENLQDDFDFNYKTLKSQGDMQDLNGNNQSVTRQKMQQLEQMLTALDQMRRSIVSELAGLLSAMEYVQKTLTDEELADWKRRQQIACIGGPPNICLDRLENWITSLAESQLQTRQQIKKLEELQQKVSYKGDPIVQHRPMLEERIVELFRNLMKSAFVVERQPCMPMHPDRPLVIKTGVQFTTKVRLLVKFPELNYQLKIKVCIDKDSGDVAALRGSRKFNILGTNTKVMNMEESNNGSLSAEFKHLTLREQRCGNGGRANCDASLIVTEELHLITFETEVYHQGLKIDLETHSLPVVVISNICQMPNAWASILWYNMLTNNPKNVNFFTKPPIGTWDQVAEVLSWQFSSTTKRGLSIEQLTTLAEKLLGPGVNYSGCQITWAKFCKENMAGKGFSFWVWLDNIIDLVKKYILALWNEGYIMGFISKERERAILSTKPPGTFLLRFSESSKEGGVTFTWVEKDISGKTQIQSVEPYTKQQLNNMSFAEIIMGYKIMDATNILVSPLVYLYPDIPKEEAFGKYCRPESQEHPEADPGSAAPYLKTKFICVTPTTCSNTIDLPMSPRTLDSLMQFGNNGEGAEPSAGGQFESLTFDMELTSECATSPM

Structure (SMILES)	IC50 [1]	IC50 [2]	IC50 [3]
CNc1cc(Nc2cccn(-c3ccccn3)c2=O)nc2c(C(=O)N[C@@H]3CCN(C)C3=O)cnn12	0.065 µM		
[2H]C([2H])([2H])NC(=O)c1nnc(NC(=O)C2CC2)cc1Nc1cccc(-c2ncc(-c3cccnc3C(F)(F)F)cn2)c1OC		0.0024 µM	

Now from value to molecule:

IC50 [1]	IC50 [2]	IC50 [3]	Structure (SMILES)
0.009 µM			CNc1cc(Nc2ccccc2OC)nc2c(C(=O)N[C@@H]3CCN(C)C3=O)cnn12
0.029 µM			CCOc1cccc(Nc2cc(NC)n3ncc(C(=O)N[C@@H]4CCN(C)C4=O)c3n2)n1
0.0059 µM			[2H]C([2H])([2H])NC(=O)c1nnc(Nc2ccc(N3CC(O)C3)cn2)cc1Nc1cccc(-c2ncn(C)n2)c1OC
0.028 µM		5.9 µM	CNC(=O)c1nnc(NC(=O)N2CCC2)cc1Nc1cccc(-c2ncn(C)n2)c1OC [US11053219, Example 28]
